Experiment [1] concerns the target T1, EPAC1 (Homo sapiens, UniProt O95398).
T1 sequence (O95398 1-923): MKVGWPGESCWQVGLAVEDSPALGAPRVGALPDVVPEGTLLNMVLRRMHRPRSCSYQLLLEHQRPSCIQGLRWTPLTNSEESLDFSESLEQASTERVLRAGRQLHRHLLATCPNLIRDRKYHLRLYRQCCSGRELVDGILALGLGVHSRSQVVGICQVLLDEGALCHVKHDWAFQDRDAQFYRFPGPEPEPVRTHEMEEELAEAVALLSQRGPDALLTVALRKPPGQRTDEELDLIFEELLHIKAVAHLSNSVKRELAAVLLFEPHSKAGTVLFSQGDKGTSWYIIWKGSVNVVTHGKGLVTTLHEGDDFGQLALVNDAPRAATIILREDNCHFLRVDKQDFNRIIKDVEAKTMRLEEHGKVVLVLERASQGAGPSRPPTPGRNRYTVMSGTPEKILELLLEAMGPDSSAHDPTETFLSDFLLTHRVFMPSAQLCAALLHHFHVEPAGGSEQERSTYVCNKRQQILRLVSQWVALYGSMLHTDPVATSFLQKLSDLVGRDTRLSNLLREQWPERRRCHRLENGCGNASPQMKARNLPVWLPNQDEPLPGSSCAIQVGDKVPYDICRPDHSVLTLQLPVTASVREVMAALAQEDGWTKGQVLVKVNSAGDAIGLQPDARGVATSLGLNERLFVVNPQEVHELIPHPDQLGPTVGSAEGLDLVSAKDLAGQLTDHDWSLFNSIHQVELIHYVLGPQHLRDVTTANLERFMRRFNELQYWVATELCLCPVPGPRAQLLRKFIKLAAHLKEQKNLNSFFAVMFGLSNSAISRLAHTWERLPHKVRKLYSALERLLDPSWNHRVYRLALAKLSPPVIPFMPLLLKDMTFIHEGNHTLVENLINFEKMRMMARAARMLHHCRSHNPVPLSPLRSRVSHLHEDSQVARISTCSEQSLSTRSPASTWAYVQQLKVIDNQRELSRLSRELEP
Particulars: at 100 μM; cited from earlier work.

Experiment [2] concerns EPAC2. Particulars: read-out: EPAC2 inhibitory activity IC50; cited from earlier work.
For experiment [3], the system named is EPAC2. The settings on record: read-out: inhibition of cAMP-mediated EPAC2 GEF activity IC50; cited from earlier work.
The target in experiment [4] is T1, EPAC1. The class given is biochemical. The settings on record: for EPAC inhibitory activities (in words): Rap1b-bGDP exchange assay.

Read-outs that look alike come from different tables or passages of the source.

For `Cc1cc(C)c(Nc2ccc(Cl)c(C(F)(F)F)c2)c(C)c1` [Compound 3], at EPAC1 [1], the “inhibition against EPAC1” value is given as “no significant inhibition”. Besides, the IC50 in the experiment on EPAC2 [2] was 400 nM; in the experiment with EPAC2 [3], 1000 nM. Turning to `COc1ccc(C(=O)/C(C#N)=N/Nc2cc(Cl)cc(Cl)c2)cc1OC` [Compound 27], the “EPAC inhibitory activities (in words)” value on EPAC1 [4] is on record as “complete loss of EPAC inhibitory activities”.

`CC(C)(C)c1ccc(C(=O)/C(C#N)=N/Nc2cc(Cl)cc(Cl)c2)cc1` [Compound 10, (E)-2-(4-(tert-Butyl)phenyl)-N-(3,5-dichlorophenyl)-2-oxoacetohydrazonoyl cyanide]: the “improvement on EPAC1 inhibitory activity compared to compound 6” value at EPAC1 [4] (ratio of IC50 values vs compound 6) stood at 2.5 fold. On to `N#C/C(=N\Nc1cc(Cl)cc(Cl)c1)C(=O)c1ccc(-c2ccccc2)cc1` [Compound 26], for which, at EPAC1 [4], the “EPAC inhibitory activities (in words)” value is reported as “complete loss of EPAC inhibitory activities”.

(Values after article PMC5693616 (Bioorganic & medicinal chemistry letters, 2017).)
